From patent US20090099231A1, “3-Sulfonylamino-Pyrrolidine-2-One Derivatives as Factor Xa Inhibitors” (priority 2005, published 2009)
Where a name gives a salt, the structure may show the parent alone.

Assays:
human plasma = assay: Measurement of Prothrombin Time (PT), time to clot formation in plasma; details: pooled plasma from 4 donors, test compound 0.03 to 100 uM, Thromboplastin C Plus
Experimental: Blood was collected into a sodium citrate solution (ratio 9:1) to give a final concentration of 0.38% citrate. Plasma was generated by centrifugation of citrated blood samples at 1200×g for 20 min at 4° C. and stored at −20° C. until use.
The PT test was performed using the BCS Coagulation Analyzer (Dade Behring). For assay, 50 ul of plasma containing test compound at concentrations ranging from 0.03 to 100 uM (made from a 100 uM stock containing 1% DMSO in plasma) was combined with 100 ul of Thromboplastin C Plus (Dade Behring). Upon addition of the reagents, absorbance at 405 nm was monitored and time to clot formation is determined (normal range for human plasma is 10.6-12.4 seconds).

human Factor Xa = human Factor Xa (Homo sapiens, UniProt P00742); assay: In vitro assay for inhibition of Factor Xa (fluorogenic assay, Rhodamine 110 bis-Cbz-glycylglycyl-L-arginine amide substrate); type: biochemical; details: for Factor Xa inhibitory activity: human Factor Xa 0.0003 U.ml-1, substrate 10 μM, 15 min preincubation, room temperature, pH 7.4; for Ki: Ki=IC50/(1+[Substrate]/Km), i.e. IC50 divided by 1.6, human Factor Xa fluorogenic assay
Chain of human Factor Xa (P00742 235-488 limits assumed): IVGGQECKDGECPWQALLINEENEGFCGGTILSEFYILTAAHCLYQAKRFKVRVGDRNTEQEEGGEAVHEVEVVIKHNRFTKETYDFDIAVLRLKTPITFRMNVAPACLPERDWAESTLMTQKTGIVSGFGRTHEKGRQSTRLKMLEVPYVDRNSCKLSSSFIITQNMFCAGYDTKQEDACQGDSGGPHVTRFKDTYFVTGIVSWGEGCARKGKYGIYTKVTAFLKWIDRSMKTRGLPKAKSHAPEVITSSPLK
Chain of human Factor Xa (P00742 41-179 partner limits assumed): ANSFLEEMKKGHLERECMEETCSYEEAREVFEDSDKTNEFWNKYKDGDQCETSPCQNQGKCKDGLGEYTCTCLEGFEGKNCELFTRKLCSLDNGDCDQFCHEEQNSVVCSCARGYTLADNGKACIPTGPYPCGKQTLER
Experimental: Compounds of the present invention were tested for their Factor Xa inhibitory activity as determined in vitro by their ability to inhibit human Factor Xa in a fluorogenic assay, using Rhodamine 110, bis-Cbz-glycylglycyl-L-arginine amide as the fluorogenic substrate. Compounds were diluted from a 10 mM stock solution in dimethylsulfoxide at appropriate concentrations. Assay was performed at room temperature using buffer consisting of: 50 mM Tris-HCl, 150 mM NaCl, 5 mM CaCl2, pH 7.4 containing human Factor Xa (final concentration of 0.0003 U.ml-1). Compound and enzyme were preincubated for 15 min prior to addition of the substrate (final concentration of 10 μM). The reaction was stopped after 3 hrs with the addition of H-D-Phe-Pro-Arg-Chloromethylketone. An LJL-Analyst fluorimeter was used to monitor fluorescence with 485 nm excitation/535 nm emission. To obtain IC50 values the data were analysed using ActivityBase® and XLfit®.
Ki=IC50/(1+[Substrate]/Km)
The Ki value for the above assay can be obtained by dividing the IC50 value by 1.6.

Row | Factor Xa inhibitory activity (human Factor Xa) | Ki (human Factor Xa) | Structure (SMILES) | activity in prothrombin time (PT) test (human plasma)
1 | exhibit Factor Xa inhibitory activity | – | Cl.O=C1[C@@H](NS(=O)(=O)/C=C/c2ccc(Cl)s2)CCN1c1ccc2c(c1)CCNC2 [Example 2, (E)-2-(5-Chloro-2-thienyl)-N-[(3S)-2-oxo-1-(1,2,3,4-tetrahydro-6-isoquinolinyl)-3-pyrrolidinyl]ethenesulfonamide hydrochloride] | exhibit activity
2 | exhibit Factor Xa inhibitory activity | < 0.01 µM | O=C1[C@@H](NS(=O)(=O)c2cc3ccc(Cl)cc3[nH]2)CCN1c1ccc2c(c1)CCNC2.O=CO [Example 6, 6-Chloro-N-[(3S)-2-oxo-1-(1,2,3,4-tetrahydro-6-isoquinolinyl)-3-pyrrolidinyl]-1H-indole-2-sulfonamide formate] | exhibit activity
3 | exhibit Factor Xa inhibitory activity | – | CN1CCc2cc(N3CC[C@H](NS(=O)(=O)/C=C/c4ccc(Cl)s4)C3=O)ccc2C1.O=CO [Example 7, (E)-2-(5-Chloro-2-thienyl)-N-[(3S)-1-(2-methyl-1,2,3,4-tetrahydro-6-isoquinolinyl)-2-oxo-3-pyrrolidinyl]ethenesulfonamide formate] | exhibit activity
4 | exhibit Factor Xa inhibitory activity | < 0.01 µM | CN1CCc2cc(N3CC[C@H](NS(=O)(=O)c4cc5ccc(Cl)cc5s4)C3=O)ccc2C1.O=CO [Example 8, 6-Chloro-N-[(3S)-1-(2-methyl-1,2,3,4-tetrahydro-6-isoquinolinyl)-2-oxo-3-pyrrolidinyl]-1-benzothiophene-2-sulfonamide formate] | exhibit activity
5 | exhibit Factor Xa inhibitory activity | < 0.01 µM | CN([C@H]1CCN(c2ccc3c(c2)CCNC3)C1=O)S(=O)(=O)/C=C/c1ccc(Cl)s1 [Example 34, (E)-2-(5-Chloro-2-thienyl)-N-methyl-N-[(3S)-2-oxo-1-(1,2,3,4-tetrahydro-6-isoquinolinyl)-3-pyrrolidinyl]ethenesulfonamide hydrochloride] | –

More lines, now with the values behind:

Row | Structure (SMILES) | Factor Xa inhibitory activity (human Factor Xa) | Ki (human Factor Xa) | activity in prothrombin time (PT) test (human plasma)
6 | Cl.O=C1[C@@H](NS(=O)(=O)c2ccc3cc(Cl)ccc3c2)CCN1c1ccc2c(c1)CCNC2 [Example 1, 6-Chloro-N-[(3S)-2-oxo-1-(1,2,3,4-tetrahydro-6-isoquinolinyl)-3-pyrrolidinyl]-2-naphthalenesulfonamide hydrochloride] | exhibit Factor Xa inhibitory activity | – | exhibit activity
7 | Cl.O=C1[C@@H](NS(=O)(=O)c2cc3ccc(Cl)cc3s2)CCN1c1ccc2c(c1)CCNC2 [Example 3, 6-Chloro-N-[(3S)-2-oxo-1-(1,2,3,4-tetrahydro-6-isoquinolinyl)-3-pyrrolidinyl]-1-benzothiophene-2-sulfonamide hydrochloride] | exhibit Factor Xa inhibitory activity | < 0.01 µM | exhibit activity
8 | O=C1[C@@H](NS(=O)(=O)c2ccc3c(Cl)c[nH]c3c2)CCN1c1ccc2c(c1)CCNC2.O=CO [Example 4, 3-Chloro-N-[(3S)-2-oxo-1-(1,2,3,4-tetrahydro-6-isoquinolinyl)-3-pyrrolidinyl]-1H-indole-6-sulfonamide formate] | exhibit Factor Xa inhibitory activity | – | exhibit activity
9 | O=C1[C@@H](NS(=O)(=O)c2ccc3cc[nH]c3c2)CCN1c1ccc2c(c1)CCNC2.O=CO [Example 5, N-[(3S)-2-Oxo-1-(1,2,3,4-tetrahydro-6-isoquinolinyl)-3-pyrrolidinyl]-1H-indole-6-sulfonamide formate] | – | – | exhibit activity
10 | O=C1[C@@H](NS(=O)(=O)c2ccc3cc[nH]c3c2)CCN1c1ccc2c(c1)CNCC2.O=CO [Example 15, N-[(3S)-2-Oxo-1-(1,2,3,4-tetrahydro-7-isoquinolinyl)-3-pyrrolidinyl]-1H-indole-6-sulfonamide formate] | exhibit Factor Xa inhibitory activity | – | –
